From patent publication US20260165350A1, “FLAVONOID COMPOSITIONS AND USES THEREOF” (FIRMENICH SA, priority 2022, published 2026)

Tests used:
Type in all cases: physicochemical
[1] = Stability of naringenin solutions stored three months at room temperature; design: key: X: Dissolved; ◯: Partially dissolved, with sediments observed; #: Not dissolved; *: reprecipitated; conditions: n-Propyl alcohol
Text: (§1) Naringenin was mixed with different solvents and heated until the product has completely dissolved. Subsequently, the samples were left to cool down to room temperature and stored over a period of three months.

[2] = as above; design: key: X: dissolved; *: reprecipitated
Text: as §1

[3] = Solvent comparison: visual observation of naringenin dissolution, reassessed after three months; design: key: X: Dissolved; ◯: Partially dissolved, with sediments observed; #: Not dissolved; *: reprecipitated
Procedure: Several solvents and solvent blends were prepared after which a measured amount of naringenin was added and mechanically agitated. Each mixture was then visually observed for dissolution. All samples were stored at room temperature protected from direct light and were reassessed for stability after a period of three months.

[4] = Solubility at 25° C. from transparency during a heating ramp (Crystalline PV), exponential fit
Procedure: Naringenin was mixed with different solvents and mixtures of solvent and transferred to an 8-mL vial equipped with an overhead stirrer. The sample was placed in a Crystalline PV instrument (Technobis, The Netherlands). A heating step was carried with a heating ramp of +0.1° C./min under mechanical stirring, and the samples were monitored by following transparency via a LED light beam that passes through the vial. Full (100%) transparency is attained when Naringenin is completely dissolved in the solvent. On the other hand, when the measured values of transparency are below 100% the dissolution process is still incomplete. Once the signal has attained 100% transparency, the dissolution process was complete and the respective temperature was taken as the solubilization temperature.
For each solvent or mixture of solvent, the measured solubility as a function of temperature has been fitted to an exponential function. The solubility at 25° C. was obtained by extrapolation or interpolation of this exponential function.
The same method as described in Example 3 was used to determine the solubility of Phloretin at 25° C.

[5] = n-Propyl alcohol, 4% of Naringenin
[6] = n-Propyl alcohol, 5% of Naringenin
[7] = n-Propyl alcohol, 6% of Naringenin
[8] = (D)-Carvone, naringenin 15% (w/w)
[9] = (L)-Carvone + isopropyl alcohol (50:50), naringenin 10% (w/w)
[10] = (L)-Carvone, naringenin 10% (w/w)
[11] = Carvone + isopropyl alcohol + benzyl alcohol (20:40:40), naringenin 10% (w/w)
[12] = Ethanol + benzyl alcohol (50:50), naringenin 10% (w/w)
[13] = Ethyl lactate + Glycerol 20%, naringenin 10% (w/w)
[14] = Ethyl lactate, naringenin 10% (w/w)
[15] = Isopropyl alcohol + benzyl alcohol (50:50), naringenin 10% (w/w)
[16] = Isopropyl alcohol, naringenin 10% (w/w)
[17] = Lactic acid, naringenin 5% (w/w)
[18] = Mint Spicata (60% Carvone), naringenin 6% (w/w)
[19] = Mint Spicata China (80% Carvone) + isopropyl alcohol (60:40), naringenin 15% (w/w)
[20] = Mint Spicata China (80% Carvone), naringenin 10% (w/w)
[21] = Propanol NAT, naringenin 6% (w/w)
[22] = Propylene glycol, naringenin 10% (w/w)
[23] = (L)-Carvone 50% + Isopropyl alcohol 50%

For `O=C1C[C@@H](c2ccc(O)cc2)Oc2cc(O)cc(O)c21` [Naringenin, naringenin], the “Solution state (after three months at RT)” value ([1]; 8% of Naringenin) was “*”, the “Solution state (after three months at RT)” value ([1]; 10% of Naringenin) was “*” and the “Solution state (after three months at RT)” value ([1]; 12% of Naringenin) was “*”. For the same molecule, the “Solution state (after three months at RT)” value ([2]; (L)-Carvone, 4% of Naringenin) was “X”, the “Solution state (right after heating)” value ([2]; (L)-Carvone, 4% of Naringenin) was “X” and the “Solution state (after three months at RT)” value ([2]; (L)-Carvone, 5% of Naringenin) was “X”. For the same molecule, the “Solution state (right after heating)” value ([2]; (L)-Carvone, 5% of Naringenin) was “X”, the “Solution state (after three months at RT)” value ([2]; (L)-Carvone, 6% of Naringenin) was “X” and the “Solution state (right after heating)” value ([2]; (L)-Carvone, 6% of Naringenin) was “X”. For the same molecule, the “Solution state (after three months at RT)” value ([2]; (L)-Carvone, 8% of Naringenin) was “X”, the “Solution state (right after heating)” value ([2]; (L)-Carvone, 8% of Naringenin) was “X” and the “Solution state (after three months at RT)” value ([2]; (L)-Carvone, 10% of Naringenin) was “X”. The “Solution state (right after heating)” value ([2]; (L)-Carvone, 10% of Naringenin) was “X”, the “Solution state (after three months at RT)” value ([2]; (L)-Carvone, 12% of Naringenin) was “X” and the “Solution state (right after heating)” value ([2]; (L)-Carvone, 12% of Naringenin) was “X”. The “Solution state (after three months at RT)” value [2, 5] was “X”, the “Solution state (right after heating)” value [2, 5] was “X” and the “Solution state (after three months at RT)” value [2, 6] was “X”. The “Solution state (right after heating)” value [2, 6] was “X”, the “Solution state (after three months at RT)” value [2, 7] was “X” and the “Solution state (right after heating)” value [2, 7] was “X”. For the same molecule, the “Solution state (right after heating)” value ([2]; n-Propyl alcohol, 8% of Naringenin) was “X”, the “Solution state (right after heating)” value ([2]; n-Propyl alcohol, 10% of Naringenin) was “X” and the “Solution state (right after heating)” value ([2]; n-Propyl alcohol, 12% of Naringenin) was “X”. The Observation [3, 8] was “X”, the “Observation (after 3 months at RT)” value [3, 8] was “X” and the Observation [3, 9] was “X”. The “Observation (after 3 months at RT)” value [3, 9] was “X”, the Observation [3, 10] was “X” and the “Observation (after 3 months at RT)” value [3, 10] was “X”. For the same molecule, the Observation [3, 11] was “X”, the “Observation (after 3 months at RT)” value [3, 11] was “X” and the Observation [3, 12] was “X”. For the same molecule, the “Observation (after 3 months at RT)” value [3, 12] was “*”, the Observation [3, 13] was “◯” and the “Observation (after 3 months at RT)” value [3, 13] was “◯”. For the same molecule, the Observation [3, 14] was “#”, the “Observation (after 3 months at RT)” value [3, 14] was “#” and the Observation ([3]; Glycerol, naringenin 5% (w/w)) was “#”. The “Observation (after 3 months at RT)” value ([3]; Glycerol, naringenin 5% (w/w)) was “#”, the Observation [3, 15] was “X” and the “Observation (after 3 months at RT)” value [3, 15] was “*”. For the same molecule, the Observation [3, 16] was “#”, the “Observation (after 3 months at RT)” value [3, 16] was “#” and the Observation [3, 17] was “#”. For the same molecule, the “Observation (after 3 months at RT)” value [3, 17] was “#”, the Observation [3, 18] was “X” and the “Observation (after 3 months at RT)” value [3, 18] was “X”. For the same molecule, the Observation [3, 19] was “X”, the “Observation (after 3 months at RT)” value [3, 19] was “X” and the Observation [3, 20] was “X”. The “Observation (after 3 months at RT)” value [3, 20] was “X”, the Observation [3, 21] was “◯” and the “Observation (after 3 months at RT)” value [3, 21] was “◯”. The Observation [3, 22] was “#”, the “Observation (after 3 months at RT)” value [3, 22] was “#” and the “Solubility of Naringenin at 25° C. (%)” value ([4]; (D)-Carvone 100%) was 8.5%. The “Solubility of Naringenin at 25° C. (%)” value ([4]; (L)-Carvone 30% + n-Propyl alcohol 70%) was 11.7%, the “Solubility of Naringenin at 25° C. (%)” value ([4]; (L)-Carvone 50% + Ethanol 50%) was 18.7% and the “Solubility of Naringenin at 25° C. (%)” value [4, 23] was 16.6%. For the same molecule, the “Solubility of Naringenin at 25° C. (%)” value ([4]; (L)-Carvone 50% + Propylene glycol 50%) was 13.0%, the “Solubility of Naringenin at 25° C. (%)” value ([4]; (L)-Carvone 50% + n-Propyl alcohol 50%) was 14.9% and the “Solubility of Naringenin at 25° C. (%)” value ([4]; (L)-Carvone 70% + n-Propyl alcohol 30%) was 15.7%. For the same molecule, the “Solubility of Naringenin at 25° C. (%)” value ([4]; (L)-Carvone 90% + n-Propyl alcohol 10%) was 13.0%, the “Solubility of Naringenin at 25° C. (%)” value ([4]; (L)-Carvone 100%) was 8.5% and the “Solubility of Naringenin at 25° C. (%)” value ([4]; Benzyl alcohol 100%) was 3.9%. The “Solubility of Naringenin at 25° C. (%)” value ([4]; Ethyl lactate 100%) was 5.3%, the “Solubility of Naringenin at 25° C. (%)” value ([4]; Eucalyptol 100%) was 1.2% and the “Solubility of Naringenin at 25° C. (%)” value ([4]; Glycerol 100%) was 0.1%. The “Solubility of Naringenin at 25° C. (%)” value ([4]; Isopropyl alcohol 50% + Benzyl alcohol 50%) was 6.9%, the “Solubility of Naringenin at 25° C. (%)” value ([4]; Isopropyl alcohol 100%) was 5.2% and the “Solubility of Naringenin at 25° C. (%)” value ([4]; Limonene 100%) was <0.1%. For the same molecule, the “Solubility of Naringenin at 25° C. (%)” value ([4]; Mint Spicata (80% carvone) 50% + Propylene glycol 50%) was 12.0%, the “Solubility of Naringenin at 25° C. (%)” value ([4]; Mint Spicata (80% carvone) 60% + Isopropyl alcohol 40%) was 15.4% and the “Solubility of Naringenin at 25° C. (%)” value ([4]; Mint Spicata (80% carvone) 100%) was 7.5%. For the same molecule, the “Solubility of Naringenin at 25° C. (%)” value ([4]; Neobee 100%) was 0.1%, the “Solubility of Naringenin at 25° C. (%)” value ([4]; Propylene glycol 100%) was 3.6% and the “Solubility of Naringenin at 25° C. (%)” value ([4]; Triethyl citrate 100%) was 1.7%. For the same molecule, the “Solubility of Naringenin at 25° C. (%)” value ([4]; n-Propyl alcohol 100%) was 4.2%.
In the case of `O=C(CCc1ccc(O)cc1)c1c(O)cc(O)cc1O` [Phloretin, phloretin], the “Solubility of Phloretin at 25° C. (%)” value ([4]; (L)-Carvone 50% + Ethanol 50%) is reported as 21.9%, the “Solubility of Phloretin at 25° C. (%)” value [4, 23] is reported as 22.8% and the “Solubility of Phloretin at 25° C. (%)” value ([4]; (L)-Carvone 100%) is reported as 7.7%. The “Solubility of Phloretin at 25° C. (%)” value ([4]; Ethanol 100%) was 15.9%, the “Solubility of Phloretin at 25° C. (%)” value ([4]; Isopropyl alcohol 100%) was 12.7% and the “Solubility of Phloretin at 25° C. (%)” value ([4]; Propylene glycol 100%) was 8.9%.
